# Data from patent US20140199327A1, “METHODS OF PROMOTING DIFFERENTIATION” (Genentech, Inc., priority 2011, published 2014).
# Positions count from the first letter of the chain named. Names may count otherwise. Where a SMILES comes first, the peptide text is derived from it. The star is where a group is joined. Cbz = O=C(OCc1ccccc1)*
# T1: ubiquitinated ID2-Flag (ID2 with C-terminal Flag epitope, modified with HA-ubiquitin, affinity purified from 293T cells)
# T1 chain: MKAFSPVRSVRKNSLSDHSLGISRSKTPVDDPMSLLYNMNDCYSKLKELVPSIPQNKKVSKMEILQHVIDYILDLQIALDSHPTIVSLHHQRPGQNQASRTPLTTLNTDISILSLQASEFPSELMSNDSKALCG
# T2: endogenous USP1 (U2-OS and HOS osteosarcoma cells) (human, UniProt O94782 1-785)
# T2 construct: Endogenous protein immunoprecipitated from human cell lines
# T2 sequence: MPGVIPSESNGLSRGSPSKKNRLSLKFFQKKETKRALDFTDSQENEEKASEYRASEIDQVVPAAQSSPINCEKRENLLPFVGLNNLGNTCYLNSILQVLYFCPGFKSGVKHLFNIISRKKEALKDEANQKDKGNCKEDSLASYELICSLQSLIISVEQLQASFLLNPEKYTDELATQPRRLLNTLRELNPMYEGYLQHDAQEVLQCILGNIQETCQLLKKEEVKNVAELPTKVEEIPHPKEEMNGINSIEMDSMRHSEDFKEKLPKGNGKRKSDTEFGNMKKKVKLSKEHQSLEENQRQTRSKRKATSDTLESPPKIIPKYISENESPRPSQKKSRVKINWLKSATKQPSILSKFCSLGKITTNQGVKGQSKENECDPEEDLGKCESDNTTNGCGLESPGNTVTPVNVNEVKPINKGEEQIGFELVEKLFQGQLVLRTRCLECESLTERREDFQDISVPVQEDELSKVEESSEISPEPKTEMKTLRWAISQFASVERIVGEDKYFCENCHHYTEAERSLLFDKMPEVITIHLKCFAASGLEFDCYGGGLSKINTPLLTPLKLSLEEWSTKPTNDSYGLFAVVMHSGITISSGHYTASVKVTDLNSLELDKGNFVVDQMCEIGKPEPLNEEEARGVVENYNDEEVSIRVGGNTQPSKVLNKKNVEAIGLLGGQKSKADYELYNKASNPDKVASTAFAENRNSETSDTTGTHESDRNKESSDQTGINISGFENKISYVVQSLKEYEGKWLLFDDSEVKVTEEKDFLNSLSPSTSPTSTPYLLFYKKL
# T3: ID2 (co-transfected / co-expressed in 293T cells)
# T3 chain: T1 chain
# B1: USP1-Flag (wild-type human USP1 with in-frame C-terminal Flag epitope) (protein)
# chain: T2 sequence
# B2: USP1 C90S-Flag (catalytically inactive point mutant of human USP1 with C-terminal Flag epitope) (protein)
# chain: T2 sequence with C90S
# B3: endogenous ID2 (U2-OS, HOS and 293T cells) (other)
# chain: T1 chain
# notes: Endogenous protein of human cell lines
# B4: USP33-Flag (human USP33 with C-terminal Flag epitope) (protein)
# chain: MTGSNSHITILTLKVLPHFESLGKQEKIPNKMSAFRNHCPHLDSVGEITKEDLIQKSLGTCQDCKVQGPNLWACLENRCSYVGCGESQVDHSTIHSQETKHYLTVNLTTLRVWCYACSKEVFLDRKLGTQPSLPHVRQPHQIQENSVQDFKIPSNTTLKTPLVAVFDDLDIEADEEDELRARGLTGLKNIGNTCYMNAALQALSNCPPLTQFFLDCGGLARTDKKPAICKSYLKLMTELWHKSRPGSVVPTTLFQGIKTVNPTFRGYSQQDAQEFLRCLMDLLHEELKEQVMEVEEDPQTITTEETMEEDKSQSDVDFQSCESCSNSDRAENENGSRCFSEDNNETTMLIQDDENNSEMSKDWQKEKMCNKINKVNSEGEFDKDRDSISETVDLNNQETVKVQIHSRASEYITDVHSNDLSTPQILPSNEGVNPRLSASPPKSGNLWPGLAPPHKKAQSASPKRKKQHKKYRSVISDIFDGTIISSVQCLTCDRVSVTLETFQDLSLPIPGKEDLAKLHSSSHPTSIVKAGSCGEAYAPQGWIAFFMEYVKRFVVSCVPSWFWGPVVTLQDCLAAFFARDELKGDNMYSCEKCKKLRNGVKFCKVQNFPEILCIHLKRFRHELMFSTKISTHVSFPLEGLDLQPFLAKDSPAQIVTYDLLSVICHHGTASSGHYIAYCRNNLNNLWYEFDDQSVTEVSESTVQNAEAYVLFYRKSSEEAQKERRRISNLLNIMEPSLLQFYISRQWLNKFKTFAEPGPISNNDFLCIHGGVPPRKAGYIEDLVLMLPQNIWDNLYSRYGGGPAVNHLYICHTCQIEAEKIEKRRKTELEIFIRLNRAFQKEDSPATFYCISMQWFREWESFVKGKDGDPPGPIDNTKIAVTKCGNVMLRQGADSGQISEETWNFLQSIYGGGPEVILRPPVVHVDPDILQAEEKIEVETRSL
# How the values were obtained:
# [1] = tested on: USP1; experiment: In vitro deubiquitination assay; format: biochemical, human; conditions: purified USP1 and ubiquitinated ID2 from 293T cells
# Protocol: 293T cells were transfected with USP1-Flag, USP1-[…]-Flag or ID2-Flag and HA-ubiquitin in separate batches. Ubiquitinated ID2-Flag was immunoprecipitated as described above from SDS-boiled lysates. USP1 and USP1 […] were immunoprecipitated with Flag M2-agarose beads following lysis in NP-40 lysis buffer. All samples were eluted from beads with 500 μg/ml 3×Flag peptide (Sigma). Samples were recombined in deubiquitination buffer (20 mM HEPES, 20 mM NaCl, 100 μg/ml BSA, 500 μM EDTA, 1 mM DTT, pH=8.3) and incubated for the indicated times at room temperature. Ubiquitin levels were assessed by immunoblot with HA antibodies.
# [2] = tested on: proteasome; experiment: ID2 abundance after proteasome inhibition in 293T cells; format: cell-based, human; conditions: MG-132 10 μM
# Protocol: (§1) The human cell lines 143B, 293T, HOS, MG-63, SAOS-2, SJSA, and U2-OS (ATCC) were maintained in DMEM with 10% FBS (Sigma), 10 units/ml penicillin, and 10 μg/ml streptomycin (Gibco). Primary human osteoblasts (PromoCell) were expanded in primary osteoblast medium (PromoCell) and subcultured in DMEM supplemented as above. Primary human mesenchymal stem cells derived from normal bone marrow (Lonza) were subcultured in mesenchymal stem cell growth medium (Lonza). For osteogenic differentiation studies, hMSC were cultured in osteogenic differentiation medium (Lonza) supplemented with 100 ng/mL BMP-9 (R&D Systems). Primary human osteosarcomas were obtained from CytoMix, LLC, and from the Cooperative Human Tissue Network. […] Murine NIH-3T3 (ATCC) were cultured in supplemented DMEM. Wild-type and USP1^−/− DT-40 cells were a kind gift from K. Patel and were cultured in RPMI with 7% FBS and 3% chicken serum (Gibco). MG-132 (Calbiochem) was used at 10 μM. Cycloheximide (Sigma) was used at 25 μg/ml.
# (§2) Rat monoclonal antibodies were raised against the C-terminal 100 amino-acids of human USP1 or WDR48 to produce the monoclonal USP1 antibody 5E10 and WDR48 antibody 9F10. […]
# [3] = tested on: proteasome; experiment: ID protein abundance after proteasome inhibition in U2-OS cells; format: cell-based, human
# Protocol: as §1, §2
# [4] = tested on: proteasome; experiment: ID2 abundance after proteasome inhibition in DT40 cells; format: cell-based, chicken
# Protocol: as §1
# [5] = tested on: 143B osteosarcoma xenograft; experiment: 143B osteosarcoma xenograft model; format: in vivo, NCr nude mice
# Protocol: U2-OS, HOS, or SAOS cells were transfected three times with pRS shUSP1 or shCTL as follows: Cells were initially transfected with shUSP1 or shCTL, cultured for 2 days, and selected with puromycin for 3 days. Cells were retransfected with pMACS and shUSP1 or shCTL, cultured for 2 days, sorted by anti-H-2K^k bead sort (Miltenyi), cultured for 1 day, and serially re-transfected with shUSP1 or shCTL. Cells were cultured for an additional 3 days and osteoblast and hMSC markers were assessed by flow cytometry, real-time RT-PCR, and ALP assay. 143B cells were transduced with pTRIPZ-based inducible USP1 or control shRNA vectors and puromycin-resistant cells were subcultured.
# 8-week-old female NCr nude mice were injected subcutaneously in the right hind flank with 2.5×10^6 143 B shUSP1 cells in a volume of 100 μl of HBSS+matrigel. Doxycycline-treated mice were fed 1 mg/mL solutions of doxycycline in 5% sucrose water. Mice were monitored for tumor establishment and growth as well as body weight changes. When mice in a given group achieved a mean tumor volume of 2000 mm^3 and/or reached 78 days post-inoculation, mice were euthanized and dissected to confirm the presence or absence of tumor formation.
# [6] = target: T1, ubiquitinated ID2-Flag (ID2 with …)
# [7] = target: T2, endogenous USP1 (U2-OS and HOS …); experiment: immunoprecipitation of endogenous USP1 from U2-OS cells, blot for ID2; control with nonspecific IgG
# Description: ID2-Flag was immunoprecipitated from SDS/heat-denatured cell lysates. […] Control immunoprecipitations were with nonspecific IgG.
# (A) Western blot (WB) analysis of cultured primary human osteoblasts and human osteosarcoma cell lines. […] Control immunoprecipitations were with nonspecific IgG. […] Bars represent the mean±s.d. of triplicate observations. […] Un, untransfected.
# [8] = target: T3, ID2 (co-transfected / co-expressed in …)
molecule,measurement,setting,value
CCN1C(=O)C=CC1=O [N-ethylmaleimide],decrease in ID2 ubiquitination by USP1,[1],sensitive
CC(C)C[C@@H](C=O)NC(=O)[C@H](CC(C)C)NC(=O)[C@H](CC(C)C)NC(=O)OCc1ccccc1 [MG-132] (Cbz-Leu-Leu-Leu-aldehyde),endogenous ID2 abundance,[2],ID2 accumulates
same,ID expression after USP1 knockdown,[3]; U2-OS cells with USP1 knockdown,did restore ID expression
same,ID protein abundance,"[3]; U2-OS cells, MG-132 alone",did not by itself alter ID protein abundance
same,ID2 abundance,[4]; USP1−/− DT40 cells,increased ID2
same,ID2 abundance,[4]; wild-type DT40 cells,not
"doxycycline-induced USP1 shRNA: doxycycline-inducible pTRIPZ shRNA targeting human USP1, 5′-AGGCAATACTTGCTATCTTAAT-3′ (SEQ ID NO:12), Open Biosystems",xenograft tumors that achieved stasis and differentiation in situ,[5]; 143B USP1-deficient xenograft tumors,four of ten
same,ALP activity in xenografts,[5]; 143B xenografts,enhanced ALP activity
same,ID1 and ID2 in xenografts,"[5]; 143B xenografts, doxycycline",reduced ID1 and ID2
same,USP1 expression in xenografts,"[5]; 143B xenografts, doxycycline",suppressed USP1 expression
same,tumor growth,"[5]; 143B xenografts, doxycycline",reduced 143B tumor growth
same,osteogenic gene expression in xenografts,"[5]; 143B xenografts, RT-PCR, in situ hybridization","promoted OSTEONECTIN, RUNX2, SPP1/OSTEOPONTIN, OSTERIX, and BGLAP/OSTEOCALCIN expression"
B1,in vitro deubiquitination assay (HA-ubiquitin immunoblot of ID2-Flag),[6],Ubiquitinated ID2 was decreased by wild-type USP1 but not USP1 C90S
B2,in vitro deubiquitination assay (HA-ubiquitin immunoblot of ID2-Flag),[6],Ubiquitinated ID2 was decreased by wild-type USP1 but not USP1 C90S
B3,binding result,[7],binds
B4,deubiquitinating activity against ID2,[8],"unlike USP1, USP33 lacked deubiquitinating activity against ID2 (data not shown)"
